ChEMBL document CHEMBL3272080, “Analogues of luteinizing hormone releasing factor modified at positions 2, 6, and 10” (J Med Chem, 1976)
*1 amine or outer side, *2 acyl side, *3 side chain or, on linkers, in order; H or OH if unused. Where a SMILES comes first, the peptide text is derived from it. [ ]: non-standard residue; d: D form. X1 = CCCCCCCCCCCCNCCC[C@@H](N[*:1])C(=O)[*:2]; pGlu = O=C1CC[C@@H](C(=O)O)N1

Experiments:
[1] = Increase in luteinizing hormone secretion in rat anterior pituitary cells relative to luteinizing hormone releasing factor; type: functional, Pituitary gland cell
[2] = Retardation factor in 1-butanol-acetic acid-water at 4:1:5 ratio by TLC; type: physicochemical; conditions: buffer
[3] = Retardation factor in 2-butanol-0.1 N acetic acid at 1:1 ratio by TLC; type: physicochemical
[4] = Retardation factor in 1-butanol-pyridine-0.1% acetic acid at 5:3:11 ratio by TLC; type: physicochemical
[5] = Retardation factor in ethyl acetate-pyridine-acetic acid-water at 5:5:1:3 ratio by TLC; type: physicochemical; conditions: buffer
[6] = Retardation factor in 1-butanol-2-propanol-1 N ammonium hydroxide-ethyl acetate at 1:1:2.5:1 ratio by TLC; type: physicochemical
[7] = Retardation factor in 1-butanol-ethyl acetate-acetic acid-water at 1:1:1:1 ratio by TLC; type: physicochemical; conditions: buffer
[8] = Inhibition of LRF-induced luteinizing hormone secretion in rat anterior pituitary cells relative to [des-His2,D-Ala6]-LRF; type: functional, Pituitary gland cell
[9] = Retardation factor in 2-butanol-water at 1:1 ratio by TLC; type: physicochemical; conditions: buffer
[10] = Retardation factor in 2-butanol-0.1 N ammonium hydroxide at 1:1 ratio by TLC; type: physicochemical

SMILES	Rf [2]	Rf [3]	Rf [4]	Rf [5]	Rf [6]	Rf [7]	Rf [9]	Rf [10]	fold change (FC) [1]	fold change (FC) [8]
CC(C)C[C@H](NC(=O)[C@@H](CCCN)NC(=O)[C@H](Cc1ccc(O)cc1)NC(=O)[C@H](CO)NC(=O)[C@H](Cc1c[nH]c2ccccc12)NC(=O)[C@@H]1CCC(=O)N1)C(=O)N[C@@H](CCCNC(=N)N)C(=O)N1CCC[C@H]1C(=O)NCC(N)=O	0.46	0.31	0.54	0.67	0.28	0.74	0.24			134
CCCCCCCCCCCCNCCCC[C@@H](NC(=O)[C@H](Cc1ccc(O)cc1)NC(=O)[C@H](CO)NC(=O)[C@H](Cc1c[nH]c2ccccc12)NC(=O)[C@H](Cc1cnc[nH]1)NC(=O)[C@@H]1CCC(=O)N1)C(=O)N[C@@H](CC(C)C)C(=O)N[C@@H](CCCNC(=N)N)C(=O)N1CCC[C@H]1C(=O)NCC(N)=O	0.4	0.38	0.56	0.35	0.44	0.74	0.37	0.37	164	
CCCCCCCCCCCCNCCC[C@@H](NC(=O)[C@H](Cc1ccc(O)cc1)NC(=O)[C@H](CO)NC(=O)[C@H](Cc1c[nH]c2ccccc12)NC(=O)[C@H](Cc1cnc[nH]1)NC(=O)[C@@H]1CCC(=O)N1)C(=O)N[C@@H](CC(C)C)C(=O)N[C@@H](CCCNC(=N)N)C(=O)N1CCC[C@H]1C(=O)NCC(N)=O	0.4	0.39	0.59	0.34	0.43	0.72	0.38	0.36	290	
CCCCCCCCCCCCNCCCC[C@@H](NC(=O)[C@H](Cc1ccc(O)cc1)NC(=O)[C@H](CO)NC(=O)[C@H](Cc1c[nH]c2ccccc12)NC(=O)[C@H](Cc1cnc[nH]1)NC(=O)[C@@H]1CCC(=O)N1)C(=O)N[C@@H](CC(C)C)C(=O)N[C@@H](CCCNC(=N)N)C(=O)N1CCC[C@H]1C(=O)NCC	0.42	0.43	0.61	0.4	0.47	0.72	0.39	0.38	1038	
CCCCCCCCCCCCNCCC[C@@H](NC(=O)[C@H](Cc1ccc(O)cc1)NC(=O)[C@H](CO)NC(=O)[C@H](Cc1c[nH]c2ccccc12)NC(=O)[C@H](Cc1cnc[nH]1)NC(=O)[C@@H]1CCC(=O)N1)C(=O)N[C@@H](CC(C)C)C(=O)N[C@@H](CCCNC(=N)N)C(=O)N1CCC[C@H]1C(=O)NCC	0.45	0.43	0.62	0.38	0.46	0.72	0.4	0.37	490	
CCCCCCCCCCCCNCCCC[C@@H](NC(=O)[C@H](Cc1ccc(O)cc1)NC(=O)[C@H](CO)NC(=O)[C@H](Cc1c[nH]c2ccccc12)NC(=O)[C@@H]1CCC(=O)N1)C(=O)N[C@@H](CC(C)C)C(=O)N[C@@H](CCCNC(=N)N)C(=O)N1CCC[C@H]1C(=O)NCC(N)=O	0.52	0.46	0.66	0.48	0.44	0.78	0.44	0.43		284
CCCCCCCCCCCCNCCCC[C@@H](NC(=O)[C@H](Cc1ccc(O)cc1)NC(=O)[C@H](CO)NC(=O)[C@H](Cc1c[nH]c2ccccc12)NC(=O)[C@@H]1CCC(=O)N1)C(=O)N[C@@H](CC(C)C)C(=O)N[C@@H](CCCNC(=N)N)C(=O)N1CCC[C@H]1C(=O)NCC	0.63	0.52	0.73	0.53	0.47	0.83	0.46	0.45		276
CCCCCCCCCCCCNCCC[C@@H](NC(=O)[C@H](Cc1ccc(O)cc1)NC(=O)[C@H](CO)NC(=O)[C@H](Cc1c[nH]c2ccccc12)NC(=O)[C@@H]1CCC(=O)N1)C(=O)N[C@@H](CC(C)C)C(=O)N[C@@H](CCCNC(=N)N)C(=O)N1CCC[C@H]1C(=O)NCC ([pGlu]WSY[X1]LRP-NHEt)	0.64	0.51	0.71	0.55	0.49	0.84	0.47	0.46		153
CCCCCCCCCCCCNCCC[C@@H](NC(=O)[C@H](Cc1ccc(O)cc1)NC(=O)[C@H](CO)NC(=O)[C@H](Cc1c[nH]c2ccccc12)NC(=O)[C@@H]1CCC(=O)N1)C(=O)N[C@@H](CC(C)C)C(=O)N[C@@H](CCCNC(=N)N)C(=O)N1CCC[C@H]1C(=O)NCC(N)=O ([pGlu]WSY[X1]LRPG-NH2)	0.53	0.47	0.67	0.48	0.44	0.78	0.45	0.43		278
CC(C)C[C@H](NC(=O)[C@@H](CCCCN)NC(=O)[C@H](Cc1ccc(O)cc1)NC(=O)[C@H](CO)NC(=O)[C@H](Cc1c[nH]c2ccccc12)NC(=O)[C@@H]1CCC(=O)N1)C(=O)N[C@@H](CCCNC(=N)N)C(=O)N1CCC[C@H]1C(=O)NCC(N)=O ([pGlu]WSY[dK]LRPG-NH2)	0.35	0.33	0.47	0.71	0.26	0.73	0.25			123

More lines, main results first:

Rf [2]	Rf [3]	Rf [4]	Rf [5]	Rf [6]	Rf [7]	Rf [9]	Rf [10]	SMILES	fold change (FC) [1]	fold change (FC) [8]
0.35	0.24	0.45	0.6	0.25	0.62			CC(C)C[C@H](NC(=O)[C@@H](CCCN)NC(=O)[C@H](Cc1ccc(O)cc1)NC(=O)[C@H](CO)NC(=O)[C@H](Cc1c[nH]c2ccccc12)NC(=O)[C@H](Cc1cnc[nH]1)NC(=O)[C@@H]1CCC(=O)N1)C(=O)N[C@@H](CCCNC(=N)N)C(=O)N1CCC[C@H]1C(=O)NCC(N)=O	182	
0.4	0.27	0.53	0.63	0.31	0.66			CCNC(=O)[C@@H]1CCCN1C(=O)[C@H](CCCNC(=N)N)NC(=O)[C@H](CC(C)C)NC(=O)[C@@H](CCCCN)NC(=O)[C@H](Cc1ccc(O)cc1)NC(=O)[C@H](CO)NC(=O)[C@H](Cc1c[nH]c2ccccc12)NC(=O)[C@H](Cc1cnc[nH]1)NC(=O)[C@@H]1CCC(=O)N1	1726	
0.26	0.29	0.47	0.69	0.34	0.65			CCNC(=O)[C@@H]1CCCN1C(=O)[C@H](CCCNC(=N)N)NC(=O)[C@H](CC(C)C)NC(=O)[C@@H](CCCN)NC(=O)[C@H](Cc1ccc(O)cc1)NC(=O)[C@H](CO)NC(=O)[C@H](Cc1c[nH]c2ccccc12)NC(=O)[C@H](Cc1cnc[nH]1)NC(=O)[C@@H]1CCC(=O)N1	682	
0.49	0.35	0.59	0.71	0.37	0.76	0.31		CCNC(=O)[C@@H]1CCCN1C(=O)[C@H](CCCNC(=N)N)NC(=O)[C@H](CC(C)C)NC(=O)[C@@H](CCCCN)NC(=O)[C@H](Cc1ccc(O)cc1)NC(=O)[C@H](CO)NC(=O)[C@H](Cc1c[nH]c2ccccc12)NC(=O)[C@@H]1CCC(=O)N1		97
0.54	0.36	0.63	0.71	0.38	0.78	0.28		CCNC(=O)[C@@H]1CCCN1C(=O)[C@H](CCCNC(=N)N)NC(=O)[C@H](CC(C)C)NC(=O)[C@@H](CCCN)NC(=O)[C@H](Cc1ccc(O)cc1)NC(=O)[C@H](CO)NC(=O)[C@H](Cc1c[nH]c2ccccc12)NC(=O)[C@@H]1CCC(=O)N1		105
0.39	0.34	0.56	0.69	0.43	0.73	0.34	0.33	CC(=O)NCCCC[C@@H](NC(=O)[C@H](Cc1ccc(O)cc1)NC(=O)[C@H](CO)NC(=O)[C@H](Cc1c[nH]c2ccccc12)NC(=O)[C@H](Cc1cnc[nH]1)NC(=O)[C@@H]1CCC(=O)N1)C(=O)N[C@@H](CC(C)C)C(=O)N[C@@H](CCCNC(=N)N)C(=O)N1CCC[C@H]1C(=O)NCC(N)=O	274	
0.38	0.34	0.57	0.66	0.43	0.7	0.33	0.34	CC(=O)NCCC[C@@H](NC(=O)[C@H](Cc1ccc(O)cc1)NC(=O)[C@H](CO)NC(=O)[C@H](Cc1c[nH]c2ccccc12)NC(=O)[C@H](Cc1cnc[nH]1)NC(=O)[C@@H]1CCC(=O)N1)C(=O)N[C@@H](CC(C)C)C(=O)N[C@@H](CCCNC(=N)N)C(=O)N1CCC[C@H]1C(=O)NCC(N)=O	101	
0.31	0.24	0.42	0.58	0.24	0.57			CC(C)C[C@H](NC(=O)[C@@H](CCCCN)NC(=O)[C@H](Cc1ccc(O)cc1)NC(=O)[C@H](CO)NC(=O)[C@H](Cc1c[nH]c2ccccc12)NC(=O)[C@H](Cc1cnc[nH]1)NC(=O)[C@@H]1CCC(=O)N1)C(=O)N[C@@H](CCCNC(=N)N)C(=O)N1CCC[C@H]1C(=O)NCC(N)=O	383	
